Where two headings read alike, the source gives them in different places.
How the values were obtained:
[1] = Cytotoxicity assay (MTT), J774A.1 cell line; format: cell-based; conditions: mouse
Procedure: (§1) Adherent BALB/c mouse macrophage cell line J774A.1 (ATCC® TIB 67™) and suspension human acute monocytic leukemic cell line THP-1 (ATCC® TIB-202™) were purchased from DSMZ, Germany were cultured and maintained in DMEM medium (Gibco) and RPMI 1640 (Sigma), respectively, supplemented with 10% FBS, 1% penicillin-streptomycin (Sigma) and L-glutamine 200 mM (Sigma), at 37 °C, 5% CO2.
(§2) Cell lines J774A.1 and THP-1 were used to estimate CC50 of the peroxides. Cells were plated in 96-well flat bottom culture plates (VWR) at 5 × 10^5 cells/mL. The monocytic cell line THP-1 was differentiated in RPMI medium with phorbol myristate acetate (PMA) (25 ng/mL; Sigma) for 24 h, followed by a washing step with RPMI medium. Six serial concentrations of the compounds (Table 3) were added in four replicates and the plates were incubated at 37 °C ± 1 °C, 5% CO2 for 48 h. An untreated control (cells in DMEM or RPMI medium plus 0.5% DMSO as vehicle) and blank (medium alone) were plated out in quadruplicate. After the incubation period, 20 µL/well of MTT [3-(4,5-dimethylthiazol-2-yl)-2,5-diphenyltetrazolium bromide] was added to a final concentration of 5 µg/mL in 1× phosphate-buffered saline (PBS, Merck), with an additional 4 h incubation at 36 °C, as previously described. The formazan salts were resuspended in 2-propanol (Merck) and the cell viability was determined by measuring absorbance with a Synergy ™HTX Multi Mode Microplate Reader at 595 nm (Dynex Technologies). The CC50 values were calculated fitting the data as a non-linear regression with variable slope using a dose-response inhibitory model, in the GraphPad Prism V 8.0 program. Each compound was tested in three independent assays.

[2] = system: L. infantum IMT151 promastigotes; test: Promastigotes susceptibility assay (MTT), L. infantum; format: cell-based; conditions: Leishmania infantum, read-out: IC50 ± SD, L. infantum promastigotes
Procedure: (§3) Promastigote forms of strains of L. infantum (MHOM/PT/1988/IMT151) and L. donovani (MHOM/BD/2006/BD14) were cultured at 24 °C ± 1 °C in M199 medium (Sigma) supplemented with 20% foetal bovine serum (FBS, Sigma) and 1% penicillin-streptomycin (Sigma). L. infantum strain belongs to IHMT, Portugal cryobank collection and the L. donovani strain was kindly provided by Dr. Katrin Kuhls, Technical University of Applied Sciences Wildau, Germany. Promastigotes used for the experiments had 7 to 12 in vitro passages in culture after isolation from mice, in order to keep virulence, and were used when the stationary phase of growth was reached (day 5 to 6), corresponding to the highest promastigotes density.
(§4) For the determination of the antileishmanial activity and IC50, promastigotes of L. infantum and L. donovani were plated in 96-well flat bottom culture plates at a concentration of 5 × 10^6 parasites/mL and incubated with six serial concentrations of each compound (Table 3), in four replicates, including the control drugs, amphotericin B, miltefosine and pentamidine. One untreated control (parasites with M199 medium plus 0.5% DMSO as vehicle solution) and one blank (M199 medium alone) were also plated out in quadruplicate. After 48 h incubation at 24 °C ± 1 °C, the inhibitory activity of the compounds was evaluated using the MTT, as previously described, with an additional 4 h incubation at 36 °C. Results were expressed in terms of percentage of parasite viability relative to nontreated control and IC50 was calculated fitting the data as a non-linear regression with variable slope using a dose-response inhibitory model, in the GraphPad Prism V 8.0 program. Each compound was tested in three independent assays. […]

[3] = Cytotoxicity assay (MTT), PMA-differentiated THP-1 cell line; format: cell-based; conditions: human
Procedure: as §1, §2

[4] = system: L. donovani BD14 promastigotes; test: Promastigotes susceptibility assay (MTT), L. donovani; format: cell-based; conditions: Leishmania donovani, read-out: IC50 ± SD, L. donovani promastigotes
Procedure: as §3, §4

[5] = system: L. donovani BD14 intracellular amastigotes; test: Intracellular amastigotes assay in J774A.1 macrophages, L. donovani; format: cell-based; conditions: Leishmania donovani, read-out: IC50 ± SD, L. donovani intracellular amastigotes
Procedure: (§5) The intracellular assay using the macrophage J774A.1 cell line was performed with the compounds that presented best SI on the promastigote’s susceptibility assay. J774A.1 cells were adjusted to 2.5 × 10^5 cells/mL in supplemented DMEM medium. 200 μL/well of the cell suspension was placed in 16 well Lab Tek culture glass slides (Nunc), and incubated at 37 °C ± 1 °C, 5% CO2, for 3 h, to enable the cells to adhere to the slides. After a washing step with DMEM to discard non-attached cells, the cells were infected with 2.5 × 10^6 cells/mL promastigotes in a 10:1 parasite-host cell proportion for 24 h. Compounds and control drugs were added in two replicates of six serial concentrations (Table 3). As negative control, macrophages were cultivated in medium and DMSO, as vehicle solution (0.5% v/v). Slides were incubated for 48 h at the same temperature. After a washing step with 1× PBS (Sigma), slides were fixed and stained, and the infection index was calculated according to [34] by counting the number of intracellular amastigotes per 100 macrophages, in treated and untreated cells. Two independent experiments were performed to determine the amastigotes IC50 of each compound, which was calculated by fitting the data as a non-linear regression with variable slope using a dose-response inhibitory model, in the GraphPad Prism V 8.0 program. SI was determined as described above.

[6] = system: L. infantum promastigotes; test: Promastigotes DNA fragmentation (agarose gel); format: cell-based, Leishmania infantum; conditions: IC50 concentrations, 24 h
Procedure: 2 mM H2O2 was used as DNA damage inductor and non-treated cells were used as control. After centrifugation (10 min, 800× g) DNA was extracted using a commercial extraction kit (High Template DNA Preparation Kit, Roche, Germany), according to the manufacturer’s instructions.

[7] = system: L. infantum IMT151 intracellular amastigotes; test: Intracellular amastigotes assay in J774A.1 macrophages, L. infantum; format: cell-based; conditions: Leishmania infantum, read-out: IC50 ± SD, L. infantum intracellular amastigotes
Procedure: as §5

[8] = J774A.1 macrophage cells, 48 h incubation, MTT, read-out: CC50 ± SD, J774A.1 Cell Line
[9] = PMA-differentiated THP-1 cells, 48 h incubation, MTT, read-out: CC50 ± SD, THP-1 Cell Line
[10] = 48 h incubation, MTT, read-out: CC50 ± SD, J774A.1 Cell Line
[11] = 48 h incubation, MTT, read-out: CC50 ± SD, THP-1 Cell Line
[12] = J774.A1, 48 h incubation, J774A.1 host cells

Structure (SMILES)	CC50 at 48 h [1, 8] [µM]	IC50 ([2]; 48 h incubation, MTT) [µM]	CC50 at 48 h [3, 9] [µM]	IC50 ([4]; 48 h incubation, MTT) [µM]	other results
C1C2CC3CC1CC(C2)C31OOC2(CCC(Nc3nnn[nH]3)CC2)OO1 (stereo not drawn) [LC163]	474 ± 83.5	190 ± 21.6	753 ± 90.3	532 ± 105	–
O=C1CCC2(CC1)OOC1(O2)C2CC3CC(C2)CC1C3 (stereo not drawn) [LC50, Dispiro[cyclohexane-1,3'-[1,2,4]trioxolane-5',2''-tricyclo[3.3.1.13,7]decan]-4-one]	–	–	–	–	CC50 at 48 h [1, 10]: 519 ± 140 µM; IC50 ([2]; 48 h): 378.9 ± 2.8 µM; CC50 at 48 h [3, 11]: 713 ± 18.4 µM; IC50 ([4]; 48 h): 354 ± 8.4 µM
c1ccc(-n2nnnc2OCC2CCC3(CC2)OOC2(O3)C3CC4CC(C3)CC2C4)cc1 (stereo not drawn) [LC132]	45.8 ± 19.9	13 ± 1.7	99.8 ± 16.4	14.3 ± 5.5	IC50 [5, 12]: 9.4 ± 0.1 µM; genomic DNA fragmentation [6]: did not produce DNA fragmentation; IC50 [7, 12]: 13.2 ± 5.2 µM
C1C2CC3CC1CC(C2)C31OOC2(CCC(Nc3nnn[nH]3)CC2)O1 (stereo not drawn) [LC136, N-1H-1,2,3,4-Tetraazol-5-yl-dispiro[cyclohexane-1,3'-[1,2,4]trioxolane-5',2''-tricyclo[3.3.1.13,7]decan]-4-ylamine]	113 ± 13.8	434 ± 6.4	250 ± 4.1	232 ± 28.4	–
CCCCCCCCCCCCCCCCOP(=O)([O-])OCC[N+](C)(C)C [Miltefosine, reference compound]	–	149 ± 3.5	–	24.2 ± 10	IC50 [5, 12]: 13.3 ± 3 µM; CC50 at 48 h [1]: 94.4 ± 17.3 µM; CC50 at 48 h [3]: 100 ± 12.1 µM; IC50 [7, 12]: 16.8 ± 11.7 µM
Cn1nnc(NCC2CCC3(CC2)OOC2(O3)C3CC4CC(C3)CC2C4)n1 (stereo not drawn) [LC131]	34.1 ± 14.5	321 ± 11.8	78.2 ± 14.1	124 ± 19	–
OCC1CCC2(CC1)OOC1(O2)C2CC3CC(C2)CC1C3 (stereo not drawn) [LC93]	12 ± 0.5	435 ± 22.7	185 ± 16.1	153 ± 22.4	–
C1CCC2(CC1)OOC1(OO2)C2CC3CC(C2)CC1C3 [LC137]	–	–	–	–	IC50 ([5]; J774.A1, 48 h): 88.3 ± 14.2 µM; CC50 at 48 h [1, 10]: 443 ± 44 µM; IC50 ([2]; 48 h): 137.1 ± 0.2 µM; CC50 at 48 h [3, 11]: 3569 ± 22 µM; IC50 ([4]; 48 h): 143 ± 16.5 µM; IC50 ([7]; J774.A1, 48 h): 168 ± 8.9 µM
OCC1CCC2(CC1)OOC1(OO2)C2CC3CC(C2)CC1C3 (stereo not drawn) [LC146]	1465 ± 13	492 ± 22.7	3220 ± 72	793 ± 37.2	–
C1CC2(CCN1)OOC1(OO2)C2CC3CC(C2)CC1C3 [LC139]	–	–	–	–	CC50 at 48 h [1, 10]: 913 ± 70.7 µM; IC50 ([2]; 48 h): 472 ± 39.2 µM; CC50 at 48 h [3, 11]: 115 ± 11.4 µM; IC50 ([4]; 48 h): 507 ± 53.3 µM
O=S1(=O)N=C(OCC2CCC3(CC2)OOC2(O3)C3CC4CC(C3)CC2C4)c2ccccc21 (stereo not drawn) [LC129]	323 ± 24.5	266 ± 13.3	356 ± 31.4	–	–
O=C1CCC2(CC1)OOC1(OO2)C2CC3CC(C2)CC1C3 [LC140]	678 ± 29.9	258 ± 6.4	1400 ± 76	460 ± 38.3	–
